Reference: paper PMC11606603, “The membrane domains of mammalian adenylyl cyclases are lipid receptors” (eLife, 2024)
Where “and” joins values, the source holds several entries; their conditions need not be identical. Equal values may be shown once. Read-outs that look alike come from different tables or passages of the source.

How the values were obtained:
Format in all cases: biochemical
mAC1 = target: T1, mAC1 (Homo sapiens, UniProt Q08828); experiment: AC assay, Gsα-stimulated mAC1 in membranes from transfected HEK293 cells; conditions: for activity [%] (100% = 300nM Gsα stimulation): mAC1
T1 construct: Human mAC genes were from GenScript and fitted with a C-terminal FLAG-tag; FLAG (C); made in house; host or cells: HEK293, permanently transfected; membrane preparation
T1 sequence (Q08828 whole entry): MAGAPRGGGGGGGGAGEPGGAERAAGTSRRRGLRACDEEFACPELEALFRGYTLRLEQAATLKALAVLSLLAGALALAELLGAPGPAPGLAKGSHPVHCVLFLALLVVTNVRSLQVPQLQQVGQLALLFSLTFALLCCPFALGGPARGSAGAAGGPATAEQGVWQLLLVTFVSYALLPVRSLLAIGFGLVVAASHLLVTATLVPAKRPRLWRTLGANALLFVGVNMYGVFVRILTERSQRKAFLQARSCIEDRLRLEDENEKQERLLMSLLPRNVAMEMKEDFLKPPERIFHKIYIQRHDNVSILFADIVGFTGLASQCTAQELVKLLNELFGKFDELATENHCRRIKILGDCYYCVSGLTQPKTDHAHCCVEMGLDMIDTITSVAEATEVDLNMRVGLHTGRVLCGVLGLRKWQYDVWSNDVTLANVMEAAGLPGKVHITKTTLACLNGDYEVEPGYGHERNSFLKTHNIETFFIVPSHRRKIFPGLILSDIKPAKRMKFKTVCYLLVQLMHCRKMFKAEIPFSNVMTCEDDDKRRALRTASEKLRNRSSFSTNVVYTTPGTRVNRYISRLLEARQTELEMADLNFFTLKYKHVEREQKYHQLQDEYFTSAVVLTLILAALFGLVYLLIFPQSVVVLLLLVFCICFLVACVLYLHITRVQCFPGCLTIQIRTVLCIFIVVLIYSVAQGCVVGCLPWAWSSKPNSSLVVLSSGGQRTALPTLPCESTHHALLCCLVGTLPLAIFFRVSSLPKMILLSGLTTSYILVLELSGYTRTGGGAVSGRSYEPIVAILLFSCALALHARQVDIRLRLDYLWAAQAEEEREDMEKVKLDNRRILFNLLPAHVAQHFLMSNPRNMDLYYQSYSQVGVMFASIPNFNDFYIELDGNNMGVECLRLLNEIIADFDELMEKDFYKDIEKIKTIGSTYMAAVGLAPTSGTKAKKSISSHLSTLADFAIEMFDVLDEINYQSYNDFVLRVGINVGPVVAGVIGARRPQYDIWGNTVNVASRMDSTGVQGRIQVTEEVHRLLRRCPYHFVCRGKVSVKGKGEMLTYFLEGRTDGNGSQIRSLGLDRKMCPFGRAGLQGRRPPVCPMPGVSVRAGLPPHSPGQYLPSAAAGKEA
Method in brief: (§1)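 Human AC, FLAG-tagged, stably expressed in HEK293; membranes used as enzyme. 1 mM ATP, 2 mM MgCl2, ATP regeneration, MOPS pH 7.5; cAMP kit readout.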

mAC3 = target: T2, mAC3 (Homo sapiens, UniProt O60266); experiment: AC assay, Gsα-stimulated mAC3 in membranes from transfected HEK293 cells; conditions: for activity [%] (100% = 300nM Gsα stimulation): mAC3
T2 construct: Human mAC genes were from GenScript and fitted with a C-terminal FLAG-tag; FLAG (C); made in house; host or cells: HEK293, permanently transfected; membrane preparation
T2 sequence (O60266 whole entry): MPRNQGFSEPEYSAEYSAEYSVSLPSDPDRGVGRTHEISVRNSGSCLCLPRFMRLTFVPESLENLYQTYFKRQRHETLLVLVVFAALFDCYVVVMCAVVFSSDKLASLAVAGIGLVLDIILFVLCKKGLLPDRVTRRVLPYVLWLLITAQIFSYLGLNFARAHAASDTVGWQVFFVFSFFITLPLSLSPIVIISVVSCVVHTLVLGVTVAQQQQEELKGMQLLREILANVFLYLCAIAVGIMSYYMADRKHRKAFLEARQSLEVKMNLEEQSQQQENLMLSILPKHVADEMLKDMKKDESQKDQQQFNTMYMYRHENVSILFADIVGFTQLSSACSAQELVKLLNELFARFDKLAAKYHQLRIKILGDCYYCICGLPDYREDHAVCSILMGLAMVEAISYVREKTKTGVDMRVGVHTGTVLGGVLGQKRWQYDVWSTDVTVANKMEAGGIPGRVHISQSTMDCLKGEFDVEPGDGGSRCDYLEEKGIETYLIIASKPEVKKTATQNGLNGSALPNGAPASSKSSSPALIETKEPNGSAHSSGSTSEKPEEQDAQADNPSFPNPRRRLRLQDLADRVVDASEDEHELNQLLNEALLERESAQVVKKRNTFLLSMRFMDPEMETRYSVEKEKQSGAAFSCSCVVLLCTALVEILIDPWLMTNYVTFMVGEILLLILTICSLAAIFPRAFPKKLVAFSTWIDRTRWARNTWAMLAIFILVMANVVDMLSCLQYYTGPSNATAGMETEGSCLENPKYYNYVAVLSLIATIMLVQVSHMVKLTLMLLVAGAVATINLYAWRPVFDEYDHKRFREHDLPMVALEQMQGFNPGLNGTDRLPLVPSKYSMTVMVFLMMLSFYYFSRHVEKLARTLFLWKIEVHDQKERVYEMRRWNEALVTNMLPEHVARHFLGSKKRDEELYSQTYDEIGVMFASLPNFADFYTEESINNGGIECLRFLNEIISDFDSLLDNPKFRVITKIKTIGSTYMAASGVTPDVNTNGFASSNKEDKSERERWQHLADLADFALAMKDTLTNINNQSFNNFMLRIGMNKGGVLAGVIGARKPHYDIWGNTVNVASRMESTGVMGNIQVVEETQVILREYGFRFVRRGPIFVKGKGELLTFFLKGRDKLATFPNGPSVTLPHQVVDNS
T2 sequence (P63092 whole entry Q227L partner): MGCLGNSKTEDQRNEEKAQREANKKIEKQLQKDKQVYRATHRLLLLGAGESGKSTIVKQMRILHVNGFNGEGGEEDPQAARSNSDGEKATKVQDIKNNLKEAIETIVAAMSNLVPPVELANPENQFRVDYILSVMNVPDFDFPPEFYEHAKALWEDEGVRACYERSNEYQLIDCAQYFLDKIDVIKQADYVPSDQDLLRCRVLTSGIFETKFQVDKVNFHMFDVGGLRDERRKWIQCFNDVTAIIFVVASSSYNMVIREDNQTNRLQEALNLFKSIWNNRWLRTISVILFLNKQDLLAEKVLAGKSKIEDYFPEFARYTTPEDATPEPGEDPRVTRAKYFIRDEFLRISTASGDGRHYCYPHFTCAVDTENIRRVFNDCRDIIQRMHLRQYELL
Method in brief: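 cAMP formation was quantified by HTRF against a cAMP standard curve, with EC50 or IC50 derived by curve fitting. Reactions contained 1 mM ATP, 2 mM MgCl2, 3 mM creatine phosphate, 60 μg/ml creatine kinase and 50 mM MOPS pH 7.5, using membranes of stably transfected HEK293 cells carrying FLAG-tagged human AC.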

mAC6 = target: T3, mAC6 (Homo sapiens, UniProt O43306); experiment: AC assay, Gsα-stimulated mAC6 in membranes from transfected HEK293 cells; conditions: for activity [%] (100% = 300nM Gsα stimulation): mAC6
T3 construct: Human mAC genes were from GenScript and fitted with a C-terminal FLAG-tag; FLAG (C); made in house; host or cells: HEK293, permanently transfected; membrane preparation
T3 sequence (O43306 whole entry): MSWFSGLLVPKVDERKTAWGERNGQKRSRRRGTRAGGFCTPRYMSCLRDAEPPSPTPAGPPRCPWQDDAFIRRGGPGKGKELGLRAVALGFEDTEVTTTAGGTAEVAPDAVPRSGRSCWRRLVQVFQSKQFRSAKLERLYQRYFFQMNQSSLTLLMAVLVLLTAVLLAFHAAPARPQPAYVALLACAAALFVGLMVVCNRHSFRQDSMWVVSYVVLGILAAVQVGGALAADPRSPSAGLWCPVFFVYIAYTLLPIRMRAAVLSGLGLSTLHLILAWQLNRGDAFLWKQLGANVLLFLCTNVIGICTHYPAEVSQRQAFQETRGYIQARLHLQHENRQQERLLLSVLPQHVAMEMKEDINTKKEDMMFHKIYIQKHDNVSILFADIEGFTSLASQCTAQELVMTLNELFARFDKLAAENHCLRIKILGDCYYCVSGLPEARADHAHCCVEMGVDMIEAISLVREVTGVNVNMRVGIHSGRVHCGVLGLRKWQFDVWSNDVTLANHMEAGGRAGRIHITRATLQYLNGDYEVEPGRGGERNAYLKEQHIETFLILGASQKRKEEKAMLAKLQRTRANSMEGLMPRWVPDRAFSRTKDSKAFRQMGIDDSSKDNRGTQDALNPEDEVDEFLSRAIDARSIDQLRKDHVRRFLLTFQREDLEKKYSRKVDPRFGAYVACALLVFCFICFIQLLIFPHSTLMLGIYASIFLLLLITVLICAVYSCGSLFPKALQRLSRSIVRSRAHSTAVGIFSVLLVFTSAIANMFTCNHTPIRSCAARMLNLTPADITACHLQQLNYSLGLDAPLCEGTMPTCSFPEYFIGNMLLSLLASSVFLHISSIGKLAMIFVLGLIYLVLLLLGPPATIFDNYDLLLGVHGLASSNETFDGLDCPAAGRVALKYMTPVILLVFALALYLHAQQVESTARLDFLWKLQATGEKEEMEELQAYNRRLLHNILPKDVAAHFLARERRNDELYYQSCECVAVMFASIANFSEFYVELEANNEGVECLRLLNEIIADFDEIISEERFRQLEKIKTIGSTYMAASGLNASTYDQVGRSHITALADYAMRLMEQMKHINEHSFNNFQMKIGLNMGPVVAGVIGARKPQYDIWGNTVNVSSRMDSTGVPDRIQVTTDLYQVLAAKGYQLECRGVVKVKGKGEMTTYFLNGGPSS
Method in brief: as §1

mAC4 = target: T4, mAC4 (Homo sapiens, UniProt Q8NFM4); experiment: AC assay, Gsα-stimulated mAC4 in membranes from transfected HEK293 cells; conditions: for activity [%] (100% = 300nM Gsα stimulation): mAC4
T4 construct: Human mAC genes were from GenScript and fitted with a C-terminal FLAG-tag; FLAG (C); made in house; host or cells: HEK293, permanently transfected; membrane preparation
T4 sequence (Q8NFM4 1-1077): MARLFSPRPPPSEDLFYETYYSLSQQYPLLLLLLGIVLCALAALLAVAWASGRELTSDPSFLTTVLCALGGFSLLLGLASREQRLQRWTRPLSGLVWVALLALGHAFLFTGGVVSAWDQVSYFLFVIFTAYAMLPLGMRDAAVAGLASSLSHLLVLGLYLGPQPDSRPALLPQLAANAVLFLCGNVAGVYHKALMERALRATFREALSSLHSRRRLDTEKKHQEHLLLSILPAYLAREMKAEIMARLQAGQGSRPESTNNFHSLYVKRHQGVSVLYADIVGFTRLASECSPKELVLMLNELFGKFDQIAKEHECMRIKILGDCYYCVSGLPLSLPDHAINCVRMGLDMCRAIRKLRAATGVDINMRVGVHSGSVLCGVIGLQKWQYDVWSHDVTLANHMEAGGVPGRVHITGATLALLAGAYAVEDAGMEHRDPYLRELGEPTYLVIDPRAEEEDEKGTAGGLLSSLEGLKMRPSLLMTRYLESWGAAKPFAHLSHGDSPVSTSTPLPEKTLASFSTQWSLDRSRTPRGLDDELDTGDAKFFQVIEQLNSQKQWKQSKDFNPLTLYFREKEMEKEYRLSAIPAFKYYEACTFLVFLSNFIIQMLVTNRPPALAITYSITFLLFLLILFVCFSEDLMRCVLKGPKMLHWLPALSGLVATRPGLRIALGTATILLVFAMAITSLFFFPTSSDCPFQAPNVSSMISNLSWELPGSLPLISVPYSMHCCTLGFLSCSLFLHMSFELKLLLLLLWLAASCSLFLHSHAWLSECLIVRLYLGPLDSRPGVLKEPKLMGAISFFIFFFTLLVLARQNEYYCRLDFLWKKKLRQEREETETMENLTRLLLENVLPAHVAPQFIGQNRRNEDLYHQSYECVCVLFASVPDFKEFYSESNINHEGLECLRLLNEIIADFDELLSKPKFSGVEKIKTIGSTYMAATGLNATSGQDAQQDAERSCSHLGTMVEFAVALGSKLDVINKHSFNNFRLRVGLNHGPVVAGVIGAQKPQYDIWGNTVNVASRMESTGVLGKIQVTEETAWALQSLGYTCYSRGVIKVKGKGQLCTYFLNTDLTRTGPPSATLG
Method in brief: as §1

mAC5 = target: T5, mAC5 (Homo sapiens, UniProt O95622); experiment: AC assay, Gsα-stimulated mAC5 in membranes from transfected HEK293 cells; conditions: for activity [%] (100% = 300nM Gsα stimulation): mAC5
T5 construct: Human mAC genes were from GenScript and fitted with a C-terminal FLAG-tag; FLAG (C); made in house; host or cells: HEK293, permanently transfected; membrane preparation
T5 sequence (O95622 whole entry): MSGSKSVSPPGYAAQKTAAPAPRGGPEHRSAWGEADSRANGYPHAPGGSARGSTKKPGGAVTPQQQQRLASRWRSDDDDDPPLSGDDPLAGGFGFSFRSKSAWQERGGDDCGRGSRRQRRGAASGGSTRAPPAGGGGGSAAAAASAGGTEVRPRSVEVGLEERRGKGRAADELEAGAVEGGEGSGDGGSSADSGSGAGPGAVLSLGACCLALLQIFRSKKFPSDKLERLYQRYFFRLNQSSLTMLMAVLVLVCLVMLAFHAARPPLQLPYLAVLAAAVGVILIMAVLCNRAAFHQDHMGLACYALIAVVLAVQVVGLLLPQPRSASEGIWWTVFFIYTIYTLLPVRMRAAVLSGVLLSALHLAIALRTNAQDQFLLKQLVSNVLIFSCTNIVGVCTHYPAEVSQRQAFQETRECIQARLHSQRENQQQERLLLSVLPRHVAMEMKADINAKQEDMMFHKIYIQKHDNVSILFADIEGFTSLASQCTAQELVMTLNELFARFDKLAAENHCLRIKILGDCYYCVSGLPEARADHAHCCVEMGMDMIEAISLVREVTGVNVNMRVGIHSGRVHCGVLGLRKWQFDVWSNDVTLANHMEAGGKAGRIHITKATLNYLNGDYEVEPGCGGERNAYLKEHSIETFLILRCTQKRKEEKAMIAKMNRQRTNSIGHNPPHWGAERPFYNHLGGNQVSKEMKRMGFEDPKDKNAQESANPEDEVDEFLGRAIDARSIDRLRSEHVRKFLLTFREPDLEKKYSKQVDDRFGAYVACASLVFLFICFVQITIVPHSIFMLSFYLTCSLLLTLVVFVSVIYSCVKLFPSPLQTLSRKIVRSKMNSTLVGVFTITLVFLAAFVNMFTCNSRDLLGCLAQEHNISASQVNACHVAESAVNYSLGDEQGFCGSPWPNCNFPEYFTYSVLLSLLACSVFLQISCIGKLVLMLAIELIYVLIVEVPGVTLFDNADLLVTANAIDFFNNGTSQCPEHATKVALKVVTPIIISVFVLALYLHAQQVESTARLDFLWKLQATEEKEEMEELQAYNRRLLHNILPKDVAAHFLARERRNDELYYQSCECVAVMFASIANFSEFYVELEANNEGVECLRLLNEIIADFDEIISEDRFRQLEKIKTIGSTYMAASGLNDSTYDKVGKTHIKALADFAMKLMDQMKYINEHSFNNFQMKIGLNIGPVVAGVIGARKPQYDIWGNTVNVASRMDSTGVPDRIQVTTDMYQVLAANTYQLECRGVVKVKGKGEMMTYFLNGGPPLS
Method in brief: as §1

mAC8 = target: T6, mAC8 (Homo sapiens, UniProt P40145); experiment: AC assay, Gsα-stimulated mAC8 in membranes from transfected HEK293 cells; conditions: 20µM fatty acid concentration
T6 construct: Human mAC genes were from GenScript and fitted with a C-terminal FLAG-tag; FLAG (C); made in house; host or cells: HEK293, permanently transfected; membrane preparation
Method in brief: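 cAMP detected with a Cisbio kit, calibrated by a cAMP standard curve each run. Reaction: 1 mM ATP, 2 mM MgCl2, 3 mM creatine phosphate, 60 μg/ml creatine kinase, 50 mM MOPS pH 7.5. Enzyme source: membranes of stably transfected HEK293 (G418-selected) carrying FLAG-tagged human AC.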

[1] = 100µM Anandamide concentration, Figure 9 D
[2] = attenuation of 300 nM Gsα-stimulated activity
[3] = 6 µM, 300 nM Gsα, single experiments
[4] = 30 µM, 300 nM Gsα, single experiments
[5] = 100 µM, 300 nM Gsα, single experiments

CCCCC/C=C\C/C=C\C/C=C\C/C=C\CCCC(=O)NCCO [Anandamide, arachidonoylethanolamide]
IC50 (mAC1): 29 µM
activity [%] (100% = 300nM Gsα stimulation) (mAC1; Anandamide 0.1 µM): 100%
activity [%] (100% = 300nM Gsα stimulation) (mAC1; Anandamide 1 µM): 81% and 83% and 116% and 100% and 88%
activity [%] (100% = 300nM Gsα stimulation) (mAC1; Anandamide 3 µM): 98% and 83% and 114% and 101% and 97%
activity [%] (100% = 300nM Gsα stimulation) (mAC1; Anandamide 10 µM): 92% and 80% and 101% and 94% and 81%
activity [%] (100% = 300nM Gsα stimulation) (mAC1; Anandamide 30 µM): 41% and 63% and 74% and 78% and 71%
activity [%] (100% = 300nM Gsα stimulation) (mAC1; Anandamide 60 µM): 39% and 40% and 53% and 59% and 57%
activity [%] (100% = 300nM Gsα stimulation) (mAC3; [1]): 165%
activity [%] (100% = 300nM Gsα stimulation) (mAC3; Anandamide 0.1 µM): 100%
activity [%] (100% = 300nM Gsα stimulation) (mAC3; Anandamide 1 µM): 87% and 101% and 117% and 100% and 94% and 127% and 77%
activity [%] (100% = 300nM Gsα stimulation) (mAC3; Anandamide 10 µM): 105% and 80% and 130% and 120% and 88% and 111% and 112% and 137%
activity [%] (100% = 300nM Gsα stimulation) (mAC3; Anandamide 30 µM): 96% and 65% and 85% and 72% and 94% and 68% and 100% and 101%
IC50 (mAC6; [2]): 23 µM and 22 µM
activity [%] (100% = 300nM Gsα stimulation) (mAC6; Anandamide 0.1 µM): 100%
activity [%] (100% = 300nM Gsα stimulation) (mAC6; Anandamide 0.5 µM): 100% and 94%
activity [%] (100% = 300nM Gsα stimulation) (mAC6; Anandamide 1 µM): 89%
activity [%] (100% = 300nM Gsα stimulation) (mAC6; Anandamide 20 µM): 89%
activity [%] (100% = 300nM Gsα stimulation) (mAC6; Anandamide 30 µM): 60% and 59% and 57% and 63% and 40%
activity [%] (100% = 300nM Gsα stimulation) (mAC6; Anandamide 35 µM): 73%
activity [%] (100% = 300nM Gsα stimulation) (mAC6; Anandamide 100 µM): 26%
Effect of anandamide on Gsα-stimulated mAC4 (mAC4; concentration–response, higher concentrations, in words): distinctly not
activity [%] (100% = 300nM Gsα stimulation) (mAC4; Anandamide 0.1 µM): 100%
activity [%] (100% = 300nM Gsα stimulation) (mAC4; Anandamide 3 µM): 86% and 113% and 96% and 121% and 82%
activity [%] (100% = 300nM Gsα stimulation) (mAC4; Anandamide 30 µM): 107%
IC50 (mAC5; [2]): 42 µM
activity [%] (100% = 300nM Gsα stimulation) (mAC5; [1]): 55% and 58% and 70% and 40% and 56% and 45% and 65% and 60%
activity [%] (100% = 300nM Gsα stimulation) (mAC5; Anandamide 0.1 µM): 100%
activity [%] (100% = 300nM Gsα stimulation) (mAC5; Anandamide 0.5 µM): 96% and 115% and 93% and 114% and 127%
activity [%] (100% = 300nM Gsα stimulation) (mAC5; Anandamide 3 µM): 122% and 77%
activity [%] (100% = 300nM Gsα stimulation) (mAC5; Anandamide 8 µM): 101%
activity [%] (100% = 300nM Gsα stimulation) (mAC5; Anandamide 10 µM): 99%
activity [%] (100% = 300nM Gsα stimulation) (mAC5; Anandamide 35 µM): 78% and 77% and 119%
activity [%] (100% = 300nM Gsα stimulation) (mAC5; Anandamide 40 µM): 58% and 74%
activity [%] (100% = 300nM Gsα stimulation) (mAC5; Anandamide 80 µM): 47%

CCCCC/C=C\C/C=C\C/C=C\C/C=C\CCCC(=O)O [Arachidonic acid, Arachidonic ((5Z,8Z,11Z,14Z)-eicosatetraenoic) acid]
Effect of lipid on 300 nM Gsα-stimulated mAC1 (mAC1; 20 µM, in words): significantly attenuated
IC50 (mAC1; attenuation of 300 nM Gsα-stimulated activity, read-out: IC50 for mAC1): 23 µM
activity [%] (100% = 300nM Gsα stimulation) (mAC1; [3]): 84% and 119% and 80% and 96% and 100% and 86% and 114% and 97%
activity [%] (100% = 300nM Gsα stimulation) (mAC1; [4]): 58% and 69% and 46%
activity [%] (100% = 300nM Gsα stimulation) (mAC1; 60 µM, 300 nM Gsα, single experiments): 12% and 11%
activity [%] (100% = 300nM Gsα stimulation) (mAC1; [5]): 12% and 2% and 3%
mAC3 activity [%] (100% = 300nM Gsα stimulation) (mAC3; fatty acid 20 µM, individual experiments): 115% and 168% and 182% and 127%
mAC8 activity [%] (100% = 300nM Gsα stimulation) (mAC8): 90% and 106% and 87%
IC50 (mAC4): 36 µM
Effect of lipid on 300 nM Gsα-stimulated mAC4 (mAC4; 20 µM, in words): significantly attenuated
activity [%] (100% = 300nM Gsα stimulation) (mAC4; 1 µM, 300 nM Gsα, single experiments): 68% and 108% and 85% and 103% and 89% and 87% and 67% and 75%
activity [%] (100% = 300nM Gsα stimulation) (mAC4; 3 µM, 300 nM Gsα, single experiments): 72% and 95% and 69% and 73% and 97% and 106% and 108%
activity [%] (100% = 300nM Gsα stimulation) (mAC4; [3]): 70% and 85% and 107% and 83% and 91% and 126%
activity [%] (100% = 300nM Gsα stimulation) (mAC4; [4]): 84% and 74% and 88%
activity [%] (100% = 300nM Gsα stimulation) (mAC4; [5]): 22% and 14% and 13%
mAC5 activity [%] (100% = 300nM Gsα stimulation) (mAC5; 20µM fatty acid concentration): 97% and 73% and 120% and 131% and 110%
